Several values for one entry are separate records, joined by “and”; a condition that tells them apart may be missing. Equal entries are not always repeated.
Assay: molar heat capacity at constant pressure
Conditions: 101.33 kPa, Liquid, Small sample (50 mg) DSC

OCC1CCCCC1 [cyclohexylmethanol]
Conditions | molar heat capacity at constant pressure
258.09 K | 199.13 J/K/mol and 198.88 J/K/mol
263.2 K | 202.87 J/K/mol and 202.54 J/K/mol
268.3 K | 207.03 J/K/mol and 206.61 J/K/mol
273.41 K | 211.52 J/K/mol and 210.94 J/K/mol
278.51 K | 215.68 J/K/mol and 215.18 J/K/mol
283.62 K | 220.83 J/K/mol and 219.83 J/K/mol
288.72 K | 225.32 J/K/mol and 224.74 J/K/mol
293.83 K | 230.56 J/K/mol and 229.98 J/K/mol
298.93 K | 236.46 J/K/mol and 235.55 J/K/mol
304.04 K | 242.28 J/K/mol and 241.62 J/K/mol
309.14 K | 247.94 J/K/mol and 247.36 J/K/mol
314.25 K | 254.26 J/K/mol and 253.34 J/K/mol
319.35 K | 260.24 J/K/mol and 259.49 J/K/mol
324.46 K | 265.98 J/K/mol and 265.56 J/K/mol
329.57 K | 271.38 J/K/mol and 270.55 J/K/mol
334.67 K | 276.54 J/K/mol and 275.87 J/K/mol
339.77 K | 281.78 J/K/mol and 280.86 J/K/mol
344.88 K | 287.35 J/K/mol and 286.52 J/K/mol
349.98 K | 292.34 J/K/mol and 291.51 J/K/mol
355.09 K | 296.83 J/K/mol and 296.33 J/K/mol

OCCCC1CCCCC1 [3-cyclohexyl-1-propanol]
Conditions | molar heat capacity at constant pressure
258.09 K | 254.42 J/K/mol and 254.84 J/K/mol
263.2 K | 258.91 J/K/mol and 258.66 J/K/mol
268.3 K | 263.07 J/K/mol and 262.65 J/K/mol
273.41 K | 267.64 J/K/mol and 267.48 J/K/mol
278.51 K | 272.22 J/K/mol and 271.97 J/K/mol
283.62 K | 277.37 J/K/mol and 277.12 J/K/mol
288.72 K | 282.28 J/K/mol
293.83 K | 288.01 J/K/mol and 287.76 J/K/mol
298.93 K | 293.5 J/K/mol and 293.33 J/K/mol
304.04 K | 299.74 J/K/mol
309.14 K | 305.72 J/K/mol and 305.64 J/K/mol
314.25 K | 311.63 J/K/mol and 311.54 J/K/mol
319.35 K | 317.61 J/K/mol and 317.7 J/K/mol
324.46 K | 323.6 J/K/mol and 323.85 J/K/mol
329.56 K | 330.5 J/K/mol and 330 J/K/mol
334.67 K | 335.9 J/K/mol and 336.24 J/K/mol
339.77 K | 342.31 J/K/mol and 342.39 J/K/mol
344.88 K | 348.46 J/K/mol and 348.63 J/K/mol
349.98 K | 354.28 J/K/mol and 354.61 J/K/mol
355.09 K | 360.35 J/K/mol and 360.02 J/K/mol

OCCC1CCCCC1 [2-cyclohexylethanol]
Conditions | molar heat capacity at constant pressure
253.5 K | 222 J/K/mol and 223.33 J/K/mol
256.05 K | 226.07 J/K/mol and 226.32 J/K/mol
260.65 K | 229.4 J/K/mol and 229.73 J/K/mol
265.75 K | 233.72 J/K/mol and 233.97 J/K/mol
270.86 K | 238.29 J/K/mol and 238.21 J/K/mol
275.96 K | 242.12 J/K/mol and 242.2 J/K/mol
281.07 K | 246.19 J/K/mol and 246.44 J/K/mol
286.17 K | 251.6 J/K/mol and 251.26 J/K/mol
291.28 K | 256.67 J/K/mol and 256.42 J/K/mol
296.38 K | 261.91 J/K/mol and 262.07 J/K/mol
301.48 K | 267.56 J/K/mol and 266.98 J/K/mol
306.59 K | 273.13 J/K/mol and 273.21 J/K/mol
311.7 K | 278.7 J/K/mol and 279.03 J/K/mol
316.81 K | 284.35 J/K/mol
321.91 K | 290.17 J/K/mol and 289.93 J/K/mol
327.01 K | 295.5 J/K/mol and 295.58 J/K/mol
332.12 K | 301.15 J/K/mol and 300.82 J/K/mol
337.22 K | 307.39 J/K/mol and 306.64 J/K/mol
342.33 K | 313.87 J/K/mol and 312.71 J/K/mol
347.43 K | 318.61 J/K/mol and 317.95 J/K/mol
352.54 K | 323.27 J/K/mol and 322.6 J/K/mol

C=CCO [2-propenol]
Conditions | molar heat capacity at constant pressure
273.41 K | 134.94 J/K/mol and 134.61 J/K/mol
278.52 K | 137.19 J/K/mol and 137.35 J/K/mol
283.62 K | 139.43 J/K/mol and 139.18 J/K/mol
288.72 K | 141.93 J/K/mol and 141.68 J/K/mol
293.83 K | 144.34 J/K/mol and 144.17 J/K/mol
298.93 K | 146.67 J/K/mol and 146.5 J/K/mol
304.04 K | 149.16 J/K/mol and 149.08 J/K/mol
309.14 K | 152.32 J/K/mol and 151.82 J/K/mol
314.25 K | 154.82 J/K/mol and 154.4 J/K/mol
319.35 K | 157.23 J/K/mol and 157.06 J/K/mol
324.46 K | 160.14 J/K/mol and 160.3 J/K/mol
